As usually defined, the IC50 is the concentration that gives 50% inhibition. For orientation: GI50 means the concentration at which growth is held to half of that of the control. High values mean less potent growth inhibition, low ones more potent growth inhibition.

The target of one experiment is EP300 (Homo sapiens, UniProt Q09472). Description: Histone acetyltransferase inhibitory activity against EP300 (Test Example 1). In kind it is biochemical. Particulars: 50 ng/mL EP300, 2 μM Acetyl-CoA, 100 nM Histone H4(1-25)-GSGSK (Biotin), 28° C. for 1 hour. The method in brief:
(§1)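 Enzyme (50 ng/mL EP300 or 125 ng/mL CREBBP) incubated 1 h at 28° C with 2 μM acetyl-CoA, 100 nM biotinylated histone H4(1-25) peptide and 10 to 0.0006 μM compound in pH 8.0 Tris buffer with 330 nM trichostatin A, 1% DMSO. Reaction stopped with Lys-CoA; acetylation read by TR-FRET (Eu-anti pan-Ac/Sta-ULight) after overnight room-temperature incubation.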

A further experiment has as its target CREBBP (Homo sapiens, UniProt Q92793). In words: Histone acetyltransferase inhibitory activity against CREBBP (Test Example 1). It is filed as biochemical. The settings on record: 125 ng/mL CREBBP, 2 μM Acetyl-CoA, 100 nM Histone H4(1-25)-GSGSK (Biotin), 28° C. for 1 hour. The method in brief: as §1
Another experiment deals with H3K27Ac. Description: Intracellular H3K27Ac inhibitory activity in LK2 cells (Test Example 2). In kind it is cell-based. Particulars: Homo sapiens, LK-2, cultured with compound for 3 hours, read-out: Test Example 2 H3K27Ac Inhibition (LK2) IC50. Put shortly: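 Human squamous lung cancer LK2 cells (40000/well) cultured overnight at 37 °C, 5% CO2 before treatment. After paraformaldehyde fixation, peroxide quench and blocking, H3K27 acetylation detected with anti-acetyl-H3K27 rabbit mAb (4 °C overnight) and HRP secondary; chemiluminescent read-out.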

The test system of experiment [1] is LK2 cells. In words: Cell growth inhibitory activity, LK2 cells (Test Example 3). The settings on record: Homo sapiens, LK-2, 72 h, cultured for 3 days, CellTiter-Glo. In kind it is cell-based. Put shortly: (§2)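 LK2 and TE-8 […] cells in RPMI 1640 with 10% FBS exposed to 10-point 4-fold dilutions (10 mM to 38 nM, stock series) for 3 days. ATP luminescence (CellTiter-Glo 2.0) at day 0 and day 3 gave survival as (T3−C0)/(C3−C0)×100; GI50 from semilog plot.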
(In general: In ATP-based viability assays light output follows the ATP content of the culture.)

In experiment [2] the test system is TE-8 cells. In words: Cell growth inhibitory activity, TE-8 cells (Test Example 3). In kind it is cell-based. Particulars: Homo sapiens, 72 h, cultured for 3 days, CellTiter-Glo. The method in brief:
as §2

For experiment [3], the system named is LK2 cells. Description: Antitumor activity in LK2 cell subcutaneous transplant model (Test Example 4). It is filed as in vivo, female BALB/c-nu/nu mice. Particulars: dose 6.25 mg/kg/day, test end day. An excerpt:
[Test Example 4] Evaluation of Antitumor Activity in LK2 Cell Subcutaneous Transplant Model
LK2 cells were transplanted at a rate of 2×10^6 cells/head subcutaneously into a right abdominal site of each of female BALB/c-nu/nu mice, and 7 days after, the mice were grouped into groups each consisting of 5 mice based on an estimated tumor volume (longer diameter×shorter diameter×shorter diameter/2) and the weight. The LK2 cells were purchased from Human Science Research Resources Bank. […] The estimated tumor volume of each individual was measured from the day of grouping until 18 days after the transplantation (test end day).
(§3) The antitumor activity in LK2 cell subcutaneous transplant model of Test Example 4, the antitumor activity in TE-8 cell subcutaneous transplant model of Test Example 5, the antitumor activity in KARPASS-422 cell subcutaneous transplant model of Test Example 6, the antitumor activity in NMC10-15 cell subcutaneous transplant model of Test Example 7, and the antitumor activity in VCaP cell subcutaneous transplant model of Test Example 8 were respectively calculated on the end dates of the tests in accordance with the following equation: Tumor Growth Inhibition Rate %=(1−TVCt/TVCc)×100 TVC=(individual tumor volume on test end day)−(individual tumor volume on grouping day)
TVCt: average of TVC values of administration group […]

The subject of the next experiment is NMC10-15 cells. In words: Antitumor activity in NMC10-15 cell subcutaneous transplant model (Test Example 7). In kind it is in vivo, female BALB/c-nu/nu mice. Particulars: NMC10-15 subcutaneous transplant model, dose 3 mg/kg/day, oral, QD×9, 15 days after transplantation.
From the text: [Test Example 7] Evaluation of Antitumor Activity in NMC10-15 Cell Subcutaneous Transplant Model
NMC10-15 cells derived from human nut midline carcinoma were transplanted at a rate of 5×10^6 cells/head subcutaneously into a right abdominal site of each of female BALB/c-nu/nu mice, and 6 days after, the mice were grouped into groups each consisting of 5 mice based on an estimated tumor volume (longer diameter×shorter diameter×shorter diameter/2) and the weight. […] The estimated tumor volume of each individual was measured from the day of grouping until 15 days after the transplantation (test end day).
as §3, with “grouping day) […]” for “grouping day)”

The next experiment deals with VCaP cells. Description: Antitumor activity in VCaP cell subcutaneous transplant model (Test Example 8). In kind it is in vivo, male NSG mice. Particulars: dose 6 mg/kg/day, oral, QD×16, 24 days after transplantation.
From the text: [Test Example 8] Evaluation of Antitumor Activity in VCaP Cell Subcutaneous Transplant Model
VCaP cells derived from human prostate cancer were transplanted at a rate of 1×10^7 cells/head subcutaneously into a right abdominal site of each of male NSG mice, and 8 days after, the mice were grouped into groups each consisting of 5 mice based on an estimated tumor volume (longer diameter×shorter diameter×shorter diameter/2) and the weight. The VCaP cells were purchased from American Type Culture Collection. […] The estimated tumor volume of each individual was measured from the day of grouping until 24 days after the transplantation (test end day).
as §3, with “grouping day) […]” for “grouping day)”

The test system of experiment [4] is TE-8 cells. In words: Antitumor activity in TE-8 cell subcutaneous transplant model (Test Example 5). The settings on record: TE-8 subcutaneous transplant model, dose 2 mg/kg/day, test end day. It is filed as in vivo, female BALB/c-nu/nu mice.
From the text: [Test Example 5] Evaluation of Antitumor Activity in TE-8 Cell Subcutaneous Transplant Model
TE-8 cells were transplanted at a rate of 1×10^7 cells/head subcutaneously into a right abdominal site of each of female BALB/c-nu/nu mice, and 9 days after (Example 73) or 10 days after (Examples 35 and 84), the mice were grouped into groups each consisting of 5 mice based on an estimated tumor volume (longer diameter×shorter diameter×shorter diameter/2) and the weight. The TE-8 cells were purchased from Riken Cell Bank. The female BALB/c-nu/nu mice were purchased from Charles River Laboratories Japan, Inc.
From the day of grouping, the compound of Example 73 at a dose set to 2 mg/kg/day was orally administered in accordance with a schedule of twice a day continuously for 9 days (BID x 9). The estimated tumor volume of each individual was measured from the day of grouping until 18 days after the transplantation (test end day).
Besides, from the day of grouping, the compound of […] at a dose set to 2 mg/kg/day was orally administered in accordance with a schedule of twice a day continuously for 11 days (BID x 11). The estimated tumor volume of each individual was measured from the day of grouping until 21 days after the transplantation (test end day).
as §3
TVCt: average of TVC values of administration group
TVCc: average of TVC values of non-administration group

CREBBP, sequence (Q92793 whole entry): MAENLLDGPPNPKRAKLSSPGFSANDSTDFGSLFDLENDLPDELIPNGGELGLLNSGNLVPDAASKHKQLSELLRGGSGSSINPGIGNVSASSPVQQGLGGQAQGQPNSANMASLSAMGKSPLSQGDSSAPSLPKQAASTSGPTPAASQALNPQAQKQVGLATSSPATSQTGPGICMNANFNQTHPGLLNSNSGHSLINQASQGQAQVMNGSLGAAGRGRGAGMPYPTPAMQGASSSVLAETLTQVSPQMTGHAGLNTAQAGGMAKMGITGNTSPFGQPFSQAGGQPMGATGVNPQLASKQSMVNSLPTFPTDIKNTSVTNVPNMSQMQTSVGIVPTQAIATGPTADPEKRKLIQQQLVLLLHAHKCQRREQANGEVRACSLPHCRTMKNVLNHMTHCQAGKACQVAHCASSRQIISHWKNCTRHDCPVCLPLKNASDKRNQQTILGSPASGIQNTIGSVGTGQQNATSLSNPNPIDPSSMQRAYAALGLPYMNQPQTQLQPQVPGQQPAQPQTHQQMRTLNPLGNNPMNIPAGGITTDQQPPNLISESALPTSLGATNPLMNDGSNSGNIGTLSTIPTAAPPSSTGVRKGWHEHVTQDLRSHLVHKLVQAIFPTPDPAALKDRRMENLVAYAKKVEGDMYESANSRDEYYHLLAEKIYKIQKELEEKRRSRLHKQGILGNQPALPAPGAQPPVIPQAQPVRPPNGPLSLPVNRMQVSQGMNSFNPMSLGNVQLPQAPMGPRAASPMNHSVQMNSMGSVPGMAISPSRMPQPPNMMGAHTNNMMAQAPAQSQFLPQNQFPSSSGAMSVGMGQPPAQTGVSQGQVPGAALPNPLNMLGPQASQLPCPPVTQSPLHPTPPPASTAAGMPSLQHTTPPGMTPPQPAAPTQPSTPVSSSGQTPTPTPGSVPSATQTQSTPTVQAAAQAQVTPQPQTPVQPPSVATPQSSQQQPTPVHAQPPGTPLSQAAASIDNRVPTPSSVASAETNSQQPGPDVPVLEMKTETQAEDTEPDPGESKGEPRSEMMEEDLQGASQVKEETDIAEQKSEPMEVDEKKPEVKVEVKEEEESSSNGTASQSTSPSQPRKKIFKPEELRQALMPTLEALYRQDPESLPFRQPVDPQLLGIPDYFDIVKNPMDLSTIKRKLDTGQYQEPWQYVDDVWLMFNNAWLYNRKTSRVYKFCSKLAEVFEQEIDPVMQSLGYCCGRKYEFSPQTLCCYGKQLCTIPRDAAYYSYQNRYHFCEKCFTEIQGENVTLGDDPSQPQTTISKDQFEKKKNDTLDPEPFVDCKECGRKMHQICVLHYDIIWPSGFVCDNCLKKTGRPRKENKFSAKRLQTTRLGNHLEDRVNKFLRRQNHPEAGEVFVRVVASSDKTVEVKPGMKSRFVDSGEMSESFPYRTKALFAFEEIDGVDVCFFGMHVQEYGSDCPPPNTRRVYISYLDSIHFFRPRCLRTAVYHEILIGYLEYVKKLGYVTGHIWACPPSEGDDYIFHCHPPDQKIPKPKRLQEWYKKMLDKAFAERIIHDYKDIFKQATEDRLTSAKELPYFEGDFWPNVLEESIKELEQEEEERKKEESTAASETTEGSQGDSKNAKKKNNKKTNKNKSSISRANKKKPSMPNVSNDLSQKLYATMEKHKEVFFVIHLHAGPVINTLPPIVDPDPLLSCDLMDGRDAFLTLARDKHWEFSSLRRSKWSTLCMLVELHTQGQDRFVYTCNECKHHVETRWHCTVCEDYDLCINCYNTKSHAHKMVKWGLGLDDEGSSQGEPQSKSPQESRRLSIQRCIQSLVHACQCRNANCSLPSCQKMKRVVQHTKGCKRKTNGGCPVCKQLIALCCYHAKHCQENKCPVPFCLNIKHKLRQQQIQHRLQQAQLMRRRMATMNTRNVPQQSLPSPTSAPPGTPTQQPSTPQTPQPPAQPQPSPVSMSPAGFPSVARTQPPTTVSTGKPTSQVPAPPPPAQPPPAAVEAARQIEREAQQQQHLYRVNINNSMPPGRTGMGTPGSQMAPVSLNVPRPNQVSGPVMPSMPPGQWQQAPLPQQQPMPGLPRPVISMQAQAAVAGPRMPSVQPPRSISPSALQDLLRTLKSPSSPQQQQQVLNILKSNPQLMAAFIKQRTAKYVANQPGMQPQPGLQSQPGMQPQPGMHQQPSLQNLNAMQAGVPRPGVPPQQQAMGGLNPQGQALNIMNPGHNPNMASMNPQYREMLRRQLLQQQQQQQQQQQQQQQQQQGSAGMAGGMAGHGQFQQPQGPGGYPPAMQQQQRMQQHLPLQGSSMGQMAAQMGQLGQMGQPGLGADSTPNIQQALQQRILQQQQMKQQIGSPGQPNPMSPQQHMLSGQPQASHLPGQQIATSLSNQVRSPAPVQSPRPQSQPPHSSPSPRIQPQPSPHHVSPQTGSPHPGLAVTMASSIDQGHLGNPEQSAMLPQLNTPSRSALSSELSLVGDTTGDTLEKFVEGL
EP300, sequence (Q09472 whole entry): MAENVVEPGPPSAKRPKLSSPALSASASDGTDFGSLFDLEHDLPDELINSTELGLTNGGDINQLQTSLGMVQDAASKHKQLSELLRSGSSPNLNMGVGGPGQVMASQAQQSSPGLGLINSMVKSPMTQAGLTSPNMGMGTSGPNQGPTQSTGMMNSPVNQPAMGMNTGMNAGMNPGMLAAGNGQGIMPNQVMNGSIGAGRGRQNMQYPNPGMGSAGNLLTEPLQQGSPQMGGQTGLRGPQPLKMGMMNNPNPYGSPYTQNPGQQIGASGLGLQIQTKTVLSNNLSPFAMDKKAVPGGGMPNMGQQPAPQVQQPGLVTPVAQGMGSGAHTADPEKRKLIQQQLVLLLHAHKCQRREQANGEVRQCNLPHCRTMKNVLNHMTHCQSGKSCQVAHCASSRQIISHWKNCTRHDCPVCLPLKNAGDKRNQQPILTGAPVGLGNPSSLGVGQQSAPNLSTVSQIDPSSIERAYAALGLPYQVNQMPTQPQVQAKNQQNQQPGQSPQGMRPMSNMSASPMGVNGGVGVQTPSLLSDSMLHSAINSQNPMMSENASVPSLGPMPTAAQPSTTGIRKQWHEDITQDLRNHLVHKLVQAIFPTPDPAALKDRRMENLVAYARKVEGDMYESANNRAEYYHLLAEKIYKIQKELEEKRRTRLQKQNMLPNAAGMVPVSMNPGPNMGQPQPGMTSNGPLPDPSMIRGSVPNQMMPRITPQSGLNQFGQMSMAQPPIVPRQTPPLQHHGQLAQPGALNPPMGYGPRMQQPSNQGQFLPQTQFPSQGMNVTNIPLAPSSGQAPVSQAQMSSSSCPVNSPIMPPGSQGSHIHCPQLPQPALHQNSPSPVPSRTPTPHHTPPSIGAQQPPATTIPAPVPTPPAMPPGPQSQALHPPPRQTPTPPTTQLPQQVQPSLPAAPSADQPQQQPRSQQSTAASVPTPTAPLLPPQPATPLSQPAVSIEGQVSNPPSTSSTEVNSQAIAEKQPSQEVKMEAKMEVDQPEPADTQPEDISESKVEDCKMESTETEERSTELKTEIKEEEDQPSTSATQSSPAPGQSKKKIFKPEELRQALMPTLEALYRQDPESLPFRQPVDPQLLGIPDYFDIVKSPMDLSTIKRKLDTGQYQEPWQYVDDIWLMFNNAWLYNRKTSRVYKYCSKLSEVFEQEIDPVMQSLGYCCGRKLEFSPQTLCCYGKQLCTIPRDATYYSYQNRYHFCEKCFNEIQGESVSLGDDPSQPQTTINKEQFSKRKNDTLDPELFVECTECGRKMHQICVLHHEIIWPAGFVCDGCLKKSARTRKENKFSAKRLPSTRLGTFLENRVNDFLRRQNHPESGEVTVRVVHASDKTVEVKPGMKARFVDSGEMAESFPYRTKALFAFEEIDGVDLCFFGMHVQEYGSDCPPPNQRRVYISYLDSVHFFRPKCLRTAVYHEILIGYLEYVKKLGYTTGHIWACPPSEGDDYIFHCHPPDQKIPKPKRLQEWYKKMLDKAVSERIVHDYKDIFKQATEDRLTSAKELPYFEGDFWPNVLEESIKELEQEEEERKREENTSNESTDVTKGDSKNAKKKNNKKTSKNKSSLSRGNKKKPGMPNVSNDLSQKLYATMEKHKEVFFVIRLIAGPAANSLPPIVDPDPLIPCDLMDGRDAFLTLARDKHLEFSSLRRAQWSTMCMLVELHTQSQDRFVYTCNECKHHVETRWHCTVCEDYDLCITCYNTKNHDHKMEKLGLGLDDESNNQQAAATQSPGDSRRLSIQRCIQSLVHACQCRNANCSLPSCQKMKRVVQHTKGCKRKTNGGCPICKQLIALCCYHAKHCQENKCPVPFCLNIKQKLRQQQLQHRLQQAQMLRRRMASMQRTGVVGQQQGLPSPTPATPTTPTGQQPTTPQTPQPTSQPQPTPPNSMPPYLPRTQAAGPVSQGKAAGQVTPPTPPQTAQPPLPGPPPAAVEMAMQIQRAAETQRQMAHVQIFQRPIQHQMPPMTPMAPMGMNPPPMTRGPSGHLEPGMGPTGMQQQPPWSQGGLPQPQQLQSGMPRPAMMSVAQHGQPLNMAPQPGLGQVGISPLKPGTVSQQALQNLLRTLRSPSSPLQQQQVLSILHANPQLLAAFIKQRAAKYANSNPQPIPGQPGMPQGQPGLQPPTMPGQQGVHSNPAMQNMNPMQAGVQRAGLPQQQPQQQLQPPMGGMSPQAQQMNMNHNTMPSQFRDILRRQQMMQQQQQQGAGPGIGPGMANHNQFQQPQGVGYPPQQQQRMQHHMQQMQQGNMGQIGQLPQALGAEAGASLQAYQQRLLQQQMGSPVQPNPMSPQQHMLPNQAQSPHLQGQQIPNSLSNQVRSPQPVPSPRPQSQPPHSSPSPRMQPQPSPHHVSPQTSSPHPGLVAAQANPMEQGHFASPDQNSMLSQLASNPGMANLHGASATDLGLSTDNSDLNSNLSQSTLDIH

`COc1ccc(C2(C(=O)N3C[C@H](F)C[C@@H]3C(=O)Nc3ccc4[nH]ncc4n3)CCCCC2)cc1F` [Example 37, (4R)-4-Fluoro-1-{[1-(3-fluoro-4-methoxyphenyl)cyclohexyl]carbonyl}-N-1H-pyrazolo[4,3-b]pyridin-5-yl-D-prolinamide]: the IC50 amounted to 0.014 µM against EP300, 0.018 µM at CREBBP and 0.016 µM in the experiment on H3K27Ac. In addition, the 50% growth inhibitory concentration (GI50) worked out at 0.0859 µM in the experiment with LK2 cells [1] and 0.113 µM in the experiment with TE-8 cells [2]. In addition, the “Tumor Growth Inhibition Rate” value in the experiment with LK2 cells [3] stood at 42%.
As to `COc1ccc(C2(C(=O)N3C[C@H](F)C[C@@H]3C(=O)Nc3ccc4[nH]ncc4n3)CCC(F)(F)CC2)cc1` [Example 60, (4R)-1-{[4,4-Difluoro-1-(4-methoxyphenyl)cyclohexyl]carbonyl}-4-fluoro-N-1H-pyrazolo[4,3-b]pyridin-5-yl-D-prolinamide], the values for the half-maximal inhibitory concentration (IC50) against EP300, against CREBBP and with H3K27Ac were 0.028 µM, 0.067 µM and 0.054 µM, respectively. Also, the concentration for 50% growth inhibition (GI50) was determined as 0.211 µM in the experiment on LK2 cells [1] and 0.311 µM in the experiment with TE-8 cells [2]. Moreover, the “Tumor Growth Inhibition Rate” value in the experiment on NMC10-15 cells amounted to 99%; in the experiment with VCaP cells it was 89%.
Consider `COc1ccc(C2(C(=O)N3C[C@H](F)C[C@@H]3C(=O)Nc3ccc4c(n3)CC(=O)N4)CCCCC2)cc1` [Example 66, (4R)-4-Fluoro-1-{[1-(4-methoxyphenyl)cyclohexyl]carbonyl}-N-(2-oxo-2,3-dihydro-1H-pyrrolo[3,2-b]pyridin-5-yl)-D-prolinamide], for which the half-maximal inhibitory concentration (IC50) against EP300 amounted to 0.035 µM; against CREBBP, 0.073 µM; in the experiment with H3K27Ac it was 0.017 µM. The 50% growth inhibitory concentration (GI50) with LK2 cells [1] amounted to 0.548 µM; in the experiment with TE-8 cells [2], 0.847 µM. The “Tumor Growth Inhibition Rate” value with TE-8 cells [4] is reported as 54%.
Take `COc1ccc(C2(C(=O)N3C[C@H](F)C[C@@H]3C(=O)Nc3ccc4c(n3)CC(=O)N4)CCC(F)(F)CC2)cc1` [Example 73, (4R)-1-{[4,4-Difluoro-1-(4-methoxyphenyl)cyclohexyl]carbonyl}-4-fluoro-N-(2-oxo-2,3-dihydro-1H-pyrrolo[3,2-b]pyridin-5-yl)-D-prolinamide]: the half-maximal inhibitory concentration (IC50) came to 0.052 µM against EP300, 0.148 µM at CREBBP and 0.07 µM in the experiment on H3K27Ac. For the same molecule, the concentration for 50% growth inhibition (GI50) was 0.61 µM in the experiment on LK2 cells [1] and 0.62 µM in the experiment on TE-8 cells [2]. Further, the “Tumor Growth Inhibition Rate” value in the experiment on TE-8 cells [4] stood at 65%.
On to `CNCc1cc2nc(NC(=O)[C@H]3C[C@@H](F)CN3C(=O)C3(c4ccc(OC(F)F)cc4)CCC(F)(F)CC3)ccc2[nH]1` [Example 103, (4R)-1-({1-[4-(Difluoromethoxy)phenyl]-4,4-difluorocyclohexyl}carbonyl)-4-fluoro-N-{2-[(methylamino)methyl]-1H-pyrrolo[3,2-b]pyridin-5-yl}-D-prolinamide], for which the values for the IC50 against EP300, against CREBBP and with H3K27Ac were 0.041 µM, 0.077 µM and 0.034 µM, respectively. Further, the 50% growth inhibitory concentration (GI50) with LK2 cells [1] came to 0.184 µM; with TE-8 cells [2] it was 0.304 µM.
As to `O=C(Nc1ccc2[nH]ncc2n1)[C@H]1C[C@@H](F)CN1C(=O)C1(c2ccc(NS(=O)(=O)c3ccccc3)cc2)CCC(F)(F)CC1` [Example 104, (4R)-1-[(4,4-Difluoro-1-{4-[(phenylsulfonyl)amino]phenyl}cyclohexyl)carbonyl]-4-fluoro-N-1H-pyrazolo[4,3-b]pyridin-5-yl-D-prolinamide], the IC50 against EP300 was 0.026 µM; against CREBBP, 0.058 µM; in the experiment with H3K27Ac, 0.138 µM. Further, the GI50 in the experiment with LK2 cells [1] turned out to be 0.512 µM; in the experiment with TE-8 cells [2] it was 0.656 µM.
`COCc1cc2nc(NC(=O)[C@H]3C[C@@H](F)CN3C(=O)C3(c4ccc(OC(F)F)cc4)CCC(F)(F)CC3)ccc2[nH]1` [Example 105, (4R)-1-({1-[4-(Difluoromethoxy)phenyl]-4,4-difluorocyclohexyl}carbonyl)-4-fluoro-N-[2-(methoxymethyl)-1H-pyrrolo[3,2-b]pyridin-5-yl]-D-prolinamide]: the values for the half-maximal inhibitory concentration (IC50) on EP300, on CREBBP and with H3K27Ac were 0.05 µM, 0.078 µM and 0.192 µM, respectively. Further, the GI50 with LK2 cells [1] was found to be 0.753 µM; in the experiment with TE-8 cells [2], 0.989 µM.
`O=C(Nc1ccc2[nH]c(CO)cc2n1)[C@H]1C[C@@H](F)CN1C(=O)C1(c2ccc(OC(F)F)cc2)CCC(F)(F)CC1` [Example 106, (4R)-1-({1-[4-(Difluoromethoxy)phenyl]-4,4-difluorocyclohexyl}carbonyl)-4-fluoro-N-[2-(hydroxymethyl)-1H-pyrrolo[3,2-b]pyridin-5-yl]-D-prolinamide]: the 50% inhibitory concentration (IC50) on EP300 stood at 0.024 µM; at CREBBP it was 0.043 µM; in the experiment with H3K27Ac, 0.039 µM. Further, the figures for the 50% growth inhibitory concentration (GI50) in the experiment with LK2 cells [1] and with TE-8 cells [2] were 0.25 µM and 0.337 µM, respectively.
Turning to `COc1ccc(C2(C(=O)N(C)[C@H](CO)C(=O)Nc3ccc4[nH]ncc4n3)CCC(F)(F)CC2)cc1` [Example 107, 4,4-Difluoro-N-[(2R)-3-hydroxy-1-oxo-1-(1H-pyrazolo[4,3-b]pyridin-5-ylamino)propan-2-yl]-1-(4-methoxyphenyl)-N-methylcyclohexanecarboxamide], the figures for the IC50 against EP300, against CREBBP and in the experiment with H3K27Ac were 0.049 µM, 0.155 µM and 0.014 µM, respectively. Besides, the 50% growth inhibitory concentration (GI50) turned out to be 0.0999 µM in the experiment with LK2 cells [1] and 0.195 µM in the experiment with TE-8 cells [2].

Source of the values: patent US11274100B2, “EP300/CREBBP inhibitor” (Daiichi Sankyo Company, Limited, priority 2017, dated 2022).
